Results as given in patent US11572369B2, “Bicyclic pyridine compositions and methods of using the same for cancer therapy” (UNIVERSITY OF SOUTH CAROLINA, priority 2019, dated 2023).

Experiments:
Experiment in all cases: KINOMEscan
Format in all cases: binding
Conditions in all cases: 2000 nM
HIPK2 = biological target: T1, HIPK2 (Homo sapiens, UniProt Q9H2X6)
T1 construct: DNA label (for qPCR read-out); purchased DiscoveRx (KINOMEscan scanMAX panel, contract assay)

RET(V804M) = biological target: T2, RET(V804M) (Homo sapiens, UniProt P07949, V804M)
T2 construct: purchased DiscoveRx (KINOMEscan scanMAX panel)

EGFR(L747-T751del, Sins) = biological target: T3, EGFR(L747-T751del, Sins) (Homo sapiens, UniProt P00533, DEL747-750/T751S)
T3 construct: purchased DiscoveRx (KINOMEscan scanMAX panel)

FGR = biological target: T4, FGR (Homo sapiens, UniProt P09769)
T4 construct: purchased DiscoveRx (KINOMEscan scanMAX panel)

EPHB3 = biological target: T5, EPHB3 (Homo sapiens, UniProt P54753)
T5 construct: purchased DiscoveRx (KINOMEscan scanMAX panel)

PIK3CB = biological target: T6, PIK3CB (Homo sapiens, UniProt P42338)
T6 construct: DNA label; purchased DiscoveRx (KINOMEscan scanMAX panel)

MKNK1 = biological target: T7, MKNK1 (Homo sapiens, UniProt Q9BUB5)
T7 construct: DNA label (qPCR read-out); purchased KINOMEscan scanMAX panel (DiscoveRx)

[1] = biological target: T8, JAK1(JH1domain-catalytic) (Homo sapiens, UniProt P23458)
T8 construct: JAK1(JH1domain-catalytic); DNA label (qPCR read-out); purchased KINOMEscan (DiscoveRx) ScanMAX panel

PIK3CA(E545K) = biological target: T9, PIK3CA(E545K) (Homo sapiens, UniProt P42336, E545K)
T9 construct: DNA label; purchased DiscoveRx (KINOMEscan scanMAX panel)

PIK3C2B = biological target: T10, PIK3C2B (Homo sapiens, UniProt O00750)
T10 construct: DNA label (for qPCR read-out); purchased DiscoveRx (KINOMEscan scanMAX service)

EPHA6 = biological target: T11, EPHA6 (Homo sapiens, UniProt Q9UF33)
T11 construct: purchased DiscoveRx (KINOMEscan scanMAX panel)

p38-beta = biological target: T12, p38-beta (Homo sapiens, UniProt Q15759)
T12 construct: purchased DiscoverX (KINOMEscan service)

STK33 = biological target: T13, STK33 (Homo sapiens, UniProt Q9BYT3)
T13 construct: DNA label (for qPCR read-out); purchased DiscoveRx (KINOMEscan scanMAX panel, contract assay)

MET(M1250T) = biological target: T14, MET(M1250T) (Homo sapiens, UniProt P08581, M1250T)
T14 construct: purchased DiscoveRx (KINOMEscan scanMAX panel, service)

ERK3 = biological target: T15, ERK3 (Homo sapiens, UniProt Q16659)
T15 construct: DNA label (qPCR read-out); purchased DiscoveRx (KINOMEscan ScanMAX panel)

EGFR(L858R) = biological target: T16, EGFR(L858R) (Homo sapiens, UniProt P00533, L858R)
T16 construct: purchased DiscoveRx (KINOMEscan scanMAX panel)

EPHA3 = biological target: T17, EPHA3 (Homo sapiens, UniProt P29320)
T17 construct: purchased DiscoveRx (KINOMEscan scanMAX panel)

CDK4-cyclinD1 = biological target: T18, CDK4-cyclinD1 (Homo sapiens, UniProt P11802)
T18 construct: purchased DiscoverX (KINOMEscan service)

IGF1R = biological target: T19, IGF1R (Homo sapiens, UniProt P08069)
T19 construct: DNA label (qPCR read-out); purchased KINOMEscan (DiscoveRx) ScanMAX panel

NEK3 = biological target: T20, NEK3 (Homo sapiens, UniProt P51956)
T20 construct: DNA label (qPCR read-out); purchased KINOMEscan (ScanMAX panel service)

EGFR(G719C) = biological target: T21, EGFR(G719C) (Homo sapiens, UniProt P00533, G719C)
T21 construct: purchased DiscoveRx (KINOMEscan scanMAX panel)

PIKFYVE = biological target: T22, PIKFYVE (Homo sapiens, UniProt Q9Y2I7)
T22 construct: DNA label; purchased DiscoveRx (KINOMEscan scanMAX panel)

KIT = biological target: T23, KIT (Homo sapiens, UniProt P10721)
T23 construct: DNA label (for qPCR read-out); purchased DiscoveRx (KINOMEscan scanMAX panel)

KIT(A829P) = biological target: T24, KIT(A829P) (Homo sapiens, UniProt P10721, A829P)
T24 construct: DNA label (for qPCR read-out); purchased DiscoveRx (KINOMEscan scanMAX panel)

ALK(C1156Y) = biological target: T25, ALK(C1156Y) (Homo sapiens, UniProt Q9UM73, C1156Y)
T25 construct: DNA label (qPCR read-out); purchased KINOMEscan scanMAX panel (DiscoveRx)

TNNI3K = biological target: T26, TNNI3K (Homo sapiens, UniProt Q59H18)
T26 construct: DNA label (qPCR read-out); purchased KINOMEscan (DiscoveRx) ScanMAX panel

RIOK3 = biological target: T27, RIOK3 (Homo sapiens, UniProt O14730)
T27 construct: DNA label (qPCR read-out); purchased DiscoveRx (KINOMEscan ScanMAX panel)

TNK1 = biological target: T28, TNK1 (Homo sapiens, UniProt Q13470)
T28 construct: DNA label (qPCR read-out); purchased KINOMEscan (DiscoveRx) ScanMAX panel

STK35 = biological target: T29, STK35 (Homo sapiens, UniProt Q8TDR2)
T29 construct: DNA label (for qPCR read-out); purchased DiscoveRx (KINOMEscan scanMAX panel, contract assay)

FLT3 = biological target: T30, FLT3 (Homo sapiens, UniProt P36888)
T30 construct: purchased DiscoveRx (KINOMEscan scanMAX panel)

[2] = biological target: T31, RSK2(Kin.Dom.2-C-terminal) (Homo sapiens, UniProt P51812)
T31 construct: RSK2(Kin.Dom.2); purchased DiscoveRx (KINOMEscan scanMAX panel)

FGFR3(G697C) = biological target: T32, FGFR3(G697C) (Homo sapiens, UniProt P22607, G697C)
T32 construct: purchased DiscoveRx (KINOMEscan scanMAX panel)

CSF1R = biological target: T33, CSF1R (Homo sapiens, UniProt P07333)
T33 construct: DNA label (for qPCR read-out); purchased DiscoveRx (KINOMEscan scanMAX service)

VEGFR2 = biological target: T34, VEGFR2 (Homo sapiens, UniProt P35968)
T34 construct: DNA label (for qPCR read-out); purchased DiscoveRx (KINOMEscan scanMAX panel)

MEK4 = biological target: T35, MEK4 (Homo sapiens, UniProt P45985)
T35 construct: purchased DiscoveRx (KINOMEscan scanMAX panel, service)
T35 sequence (P45985 whole entry): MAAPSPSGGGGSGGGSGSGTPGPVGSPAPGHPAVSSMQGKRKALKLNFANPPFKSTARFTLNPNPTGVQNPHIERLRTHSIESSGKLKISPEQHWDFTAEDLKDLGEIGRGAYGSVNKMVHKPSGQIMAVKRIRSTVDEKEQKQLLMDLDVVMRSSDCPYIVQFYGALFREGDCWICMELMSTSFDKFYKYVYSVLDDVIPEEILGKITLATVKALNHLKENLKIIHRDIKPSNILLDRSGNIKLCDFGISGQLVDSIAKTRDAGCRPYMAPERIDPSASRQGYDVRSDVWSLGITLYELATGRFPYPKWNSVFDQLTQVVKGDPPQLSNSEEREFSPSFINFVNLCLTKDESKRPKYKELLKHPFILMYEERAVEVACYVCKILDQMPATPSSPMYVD

T33 sequence (P07333 20-972): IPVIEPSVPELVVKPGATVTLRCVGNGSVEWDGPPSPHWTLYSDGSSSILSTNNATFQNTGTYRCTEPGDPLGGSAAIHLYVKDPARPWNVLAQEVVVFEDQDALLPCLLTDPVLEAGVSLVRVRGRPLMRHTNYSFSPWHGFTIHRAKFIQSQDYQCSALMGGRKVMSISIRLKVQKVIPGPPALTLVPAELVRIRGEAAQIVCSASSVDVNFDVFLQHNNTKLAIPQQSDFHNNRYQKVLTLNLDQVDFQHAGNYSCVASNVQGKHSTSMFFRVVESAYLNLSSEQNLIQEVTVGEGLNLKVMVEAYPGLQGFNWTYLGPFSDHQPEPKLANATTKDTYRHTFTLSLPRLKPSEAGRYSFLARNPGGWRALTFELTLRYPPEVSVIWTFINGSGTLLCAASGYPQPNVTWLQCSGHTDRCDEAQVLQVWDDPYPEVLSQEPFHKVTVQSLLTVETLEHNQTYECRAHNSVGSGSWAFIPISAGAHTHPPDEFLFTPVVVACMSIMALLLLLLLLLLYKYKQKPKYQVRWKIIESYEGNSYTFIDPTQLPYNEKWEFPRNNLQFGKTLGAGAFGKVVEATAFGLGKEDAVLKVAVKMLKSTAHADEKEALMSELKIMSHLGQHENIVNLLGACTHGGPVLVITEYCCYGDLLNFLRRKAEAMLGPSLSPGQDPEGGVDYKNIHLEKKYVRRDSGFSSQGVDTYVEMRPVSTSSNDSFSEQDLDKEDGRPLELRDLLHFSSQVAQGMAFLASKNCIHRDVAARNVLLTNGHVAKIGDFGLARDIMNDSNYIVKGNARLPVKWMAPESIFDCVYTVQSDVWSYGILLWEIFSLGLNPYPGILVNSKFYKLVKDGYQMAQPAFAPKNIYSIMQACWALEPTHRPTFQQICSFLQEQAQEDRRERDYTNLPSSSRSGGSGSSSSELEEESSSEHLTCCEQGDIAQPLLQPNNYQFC
T15 sequence (Q16659 whole entry): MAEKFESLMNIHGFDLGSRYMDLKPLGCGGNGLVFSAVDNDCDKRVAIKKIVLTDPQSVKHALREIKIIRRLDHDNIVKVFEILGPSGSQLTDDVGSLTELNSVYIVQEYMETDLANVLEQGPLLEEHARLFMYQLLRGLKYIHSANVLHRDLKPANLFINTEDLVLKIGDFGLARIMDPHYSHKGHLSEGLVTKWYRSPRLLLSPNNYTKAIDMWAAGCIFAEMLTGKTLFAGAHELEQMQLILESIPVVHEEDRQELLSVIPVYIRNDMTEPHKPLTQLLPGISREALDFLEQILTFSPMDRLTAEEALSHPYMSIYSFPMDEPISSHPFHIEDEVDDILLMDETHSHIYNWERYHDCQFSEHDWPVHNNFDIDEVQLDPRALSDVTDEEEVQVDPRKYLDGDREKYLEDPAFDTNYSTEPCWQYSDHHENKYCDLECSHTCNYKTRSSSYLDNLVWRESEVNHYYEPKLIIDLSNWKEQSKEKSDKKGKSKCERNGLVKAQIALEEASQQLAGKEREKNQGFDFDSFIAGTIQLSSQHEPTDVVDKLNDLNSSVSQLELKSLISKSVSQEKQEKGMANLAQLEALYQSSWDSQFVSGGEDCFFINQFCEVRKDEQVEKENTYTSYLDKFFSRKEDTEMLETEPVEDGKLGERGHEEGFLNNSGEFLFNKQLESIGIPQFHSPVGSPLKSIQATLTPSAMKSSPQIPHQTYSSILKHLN
T18 sequence (P11802 whole entry): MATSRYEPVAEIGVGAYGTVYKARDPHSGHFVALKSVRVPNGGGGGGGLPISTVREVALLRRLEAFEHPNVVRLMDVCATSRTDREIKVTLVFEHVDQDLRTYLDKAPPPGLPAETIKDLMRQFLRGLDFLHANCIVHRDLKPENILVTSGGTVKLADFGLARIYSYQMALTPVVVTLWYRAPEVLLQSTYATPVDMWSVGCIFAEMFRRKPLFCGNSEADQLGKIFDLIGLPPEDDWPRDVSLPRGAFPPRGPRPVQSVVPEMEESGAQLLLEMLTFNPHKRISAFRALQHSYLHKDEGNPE
T18 sequence (P24385 whole entry partner): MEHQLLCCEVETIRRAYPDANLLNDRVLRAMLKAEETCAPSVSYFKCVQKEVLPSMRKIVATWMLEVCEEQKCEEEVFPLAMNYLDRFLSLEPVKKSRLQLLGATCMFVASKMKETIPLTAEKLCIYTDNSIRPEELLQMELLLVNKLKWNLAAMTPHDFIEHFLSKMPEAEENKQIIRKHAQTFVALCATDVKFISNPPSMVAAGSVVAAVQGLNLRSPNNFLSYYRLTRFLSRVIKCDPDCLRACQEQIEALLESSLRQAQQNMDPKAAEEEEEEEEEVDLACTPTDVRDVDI
T10 sequence (O00750 whole entry): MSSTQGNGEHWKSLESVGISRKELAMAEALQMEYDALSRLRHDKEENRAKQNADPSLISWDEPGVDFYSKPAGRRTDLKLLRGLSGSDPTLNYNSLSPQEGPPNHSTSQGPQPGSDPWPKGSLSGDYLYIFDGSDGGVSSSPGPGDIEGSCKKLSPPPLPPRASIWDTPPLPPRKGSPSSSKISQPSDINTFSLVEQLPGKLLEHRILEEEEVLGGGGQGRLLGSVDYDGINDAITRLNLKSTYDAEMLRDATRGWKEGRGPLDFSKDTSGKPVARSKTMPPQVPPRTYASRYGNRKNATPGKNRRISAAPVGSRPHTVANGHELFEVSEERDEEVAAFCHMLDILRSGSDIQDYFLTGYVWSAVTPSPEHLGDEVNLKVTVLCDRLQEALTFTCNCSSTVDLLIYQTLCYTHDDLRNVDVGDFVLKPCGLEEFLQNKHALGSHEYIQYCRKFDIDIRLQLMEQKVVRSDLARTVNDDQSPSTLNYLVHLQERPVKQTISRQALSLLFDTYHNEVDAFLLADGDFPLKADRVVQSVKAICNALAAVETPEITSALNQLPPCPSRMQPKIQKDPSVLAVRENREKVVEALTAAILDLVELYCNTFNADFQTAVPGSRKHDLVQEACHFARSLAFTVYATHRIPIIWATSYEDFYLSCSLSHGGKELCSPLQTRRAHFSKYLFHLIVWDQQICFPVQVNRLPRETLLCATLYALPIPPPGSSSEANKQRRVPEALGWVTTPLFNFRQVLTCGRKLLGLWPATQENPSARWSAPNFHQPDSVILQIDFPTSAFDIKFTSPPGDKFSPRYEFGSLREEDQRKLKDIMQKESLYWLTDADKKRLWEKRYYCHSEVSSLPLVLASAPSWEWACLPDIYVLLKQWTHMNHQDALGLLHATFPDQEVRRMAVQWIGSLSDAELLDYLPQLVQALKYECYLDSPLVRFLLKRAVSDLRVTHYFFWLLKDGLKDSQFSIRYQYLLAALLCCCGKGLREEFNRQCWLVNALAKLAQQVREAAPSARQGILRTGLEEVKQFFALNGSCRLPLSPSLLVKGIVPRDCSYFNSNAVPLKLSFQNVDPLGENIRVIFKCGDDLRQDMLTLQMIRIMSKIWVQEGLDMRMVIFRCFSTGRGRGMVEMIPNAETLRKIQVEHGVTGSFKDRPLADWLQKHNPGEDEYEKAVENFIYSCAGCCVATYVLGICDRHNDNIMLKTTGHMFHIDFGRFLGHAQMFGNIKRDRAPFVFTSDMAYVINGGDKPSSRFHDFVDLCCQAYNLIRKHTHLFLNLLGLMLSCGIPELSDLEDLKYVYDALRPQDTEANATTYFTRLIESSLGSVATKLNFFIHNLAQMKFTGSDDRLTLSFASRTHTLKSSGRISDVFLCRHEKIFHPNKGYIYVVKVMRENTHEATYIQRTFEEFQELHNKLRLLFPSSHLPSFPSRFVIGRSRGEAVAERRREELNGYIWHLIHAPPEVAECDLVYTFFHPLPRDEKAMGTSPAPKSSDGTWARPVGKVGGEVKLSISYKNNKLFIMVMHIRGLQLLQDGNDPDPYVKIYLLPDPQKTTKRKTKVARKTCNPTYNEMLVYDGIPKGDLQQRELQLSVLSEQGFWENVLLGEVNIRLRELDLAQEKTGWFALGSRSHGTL
T13 sequence (Q9BYT3 whole entry): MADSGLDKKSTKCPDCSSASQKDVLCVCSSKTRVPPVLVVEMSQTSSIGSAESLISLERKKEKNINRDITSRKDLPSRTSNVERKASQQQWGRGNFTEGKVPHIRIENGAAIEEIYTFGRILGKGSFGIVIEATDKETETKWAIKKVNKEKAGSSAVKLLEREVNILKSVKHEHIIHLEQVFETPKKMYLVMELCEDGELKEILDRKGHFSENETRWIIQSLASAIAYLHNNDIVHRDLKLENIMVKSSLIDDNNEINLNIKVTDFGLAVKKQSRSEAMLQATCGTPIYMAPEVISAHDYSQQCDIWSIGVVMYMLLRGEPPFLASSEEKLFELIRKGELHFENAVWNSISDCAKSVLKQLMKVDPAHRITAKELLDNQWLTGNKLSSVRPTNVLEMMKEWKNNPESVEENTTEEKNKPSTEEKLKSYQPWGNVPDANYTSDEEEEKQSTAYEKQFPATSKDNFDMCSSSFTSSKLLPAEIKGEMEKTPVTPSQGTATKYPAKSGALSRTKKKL

Row | SMILES | % Ctrl (HIPK2) [% Ctrl] | % Ctrl (RET(V804M)) [% Ctrl] | % Ctrl (EGFR(L747-T751del, Sins)) [% Ctrl] | % Ctrl (FGR) [% Ctrl] | % Ctrl (EPHB3) [% Ctrl] | % Ctrl (PIK3CB) [% Ctrl] | % Ctrl (MKNK1) [% Ctrl] | % Ctrl [1] [% Ctrl] | % Ctrl (PIK3CA(E545K)) [% Ctrl] | % Ctrl (PIK3C2B) [% Ctrl] | % Ctrl (EPHA6) [% Ctrl] | % Ctrl (p38-beta) [% Ctrl] | % Ctrl (STK33) [% Ctrl] | % Ctrl (MET(M1250T)) [% Ctrl] | % Ctrl (ERK3) [% Ctrl] | % Ctrl (EGFR(L858R)) [% Ctrl] | % Ctrl (EPHA3) [% Ctrl] | % Ctrl (CDK4-cyclinD1) [% Ctrl] | % Ctrl (IGF1R) [% Ctrl] | % Ctrl (NEK3) [% Ctrl] | also measured
1 | CN(C)C(=O)c1ccc(N2CCCN(c3ccnc4sc(C(N)=O)c(N)c34)CC2)cc1 [15u, 3-amino-4-(4-(4-(dimethylcarbamoyl)phenyl)-1,4-diazepan-1-yl)thieno[2,3-b]pyridine-2-carboxamide] | 100 | 100 | 87 | 100 | 96 | 100 | 94 | 57 | 96 | 89 | 100 | 100 | 100 | 100 | 88 | 99 | 100 | 94 | 92 | 100 | % Ctrl (EGFR(G719C)): 97 % Ctrl; % Ctrl (PIKFYVE): 91 % Ctrl; % Ctrl (KIT): 95 % Ctrl; % Ctrl (KIT(A829P)): 97 % Ctrl; % Ctrl (ALK(C1156Y)): 100 % Ctrl; % Ctrl (TNNI3K): 100 % Ctrl; % Ctrl (RIOK3): 100 % Ctrl; % Ctrl (TNK1): 100 % Ctrl; % Ctrl (STK35): 87 % Ctrl; % Ctrl (FLT3): 94 % Ctrl; % Ctrl [2]: 94 % Ctrl; % Ctrl (FGFR3(G697C)): 95 % Ctrl; % Ctrl (CSF1R): 98 % Ctrl; % Ctrl (VEGFR2): 67 % Ctrl; % Ctrl (MEK4): 69 % Ctrl
2 | [2H]C([2H])([2H])N(C(=O)c1ccc(N2CCCN(c3ccnc4sc(C(N)=O)c(N)c34)CC2)cc1)C([2H])([2H])[2H] [15u_D6, 3-amino-4-(4-(4-(bis(methyl-d3)carbamoyl)phenyl)-1,4-diazepan-1-yl)thieno[2,3-b]pyridine-2-carboxamide] | 81 | 100 | 100 | 100 | 94 | 95 | 79 | 82 | 91 | 87 | 100 | 97 | 100 | 96 | 94 | 93 | 87 | 96 | 91 | 76 | % Ctrl (EGFR(G719C)): 100 % Ctrl; % Ctrl (PIKFYVE): 98 % Ctrl; % Ctrl (KIT): 95 % Ctrl; % Ctrl (KIT(A829P)): 51 % Ctrl; % Ctrl (ALK(C1156Y)): 78 % Ctrl; % Ctrl (TNNI3K): 100 % Ctrl; % Ctrl (RIOK3): 95 % Ctrl; % Ctrl (TNK1): 100 % Ctrl; % Ctrl (STK35): 93 % Ctrl; % Ctrl (FLT3): 86 % Ctrl; % Ctrl [2]: 92 % Ctrl; % Ctrl (FGFR3(G697C)): 100 % Ctrl; % Ctrl (CSF1R): 95 % Ctrl; % Ctrl (VEGFR2): 84 % Ctrl; % Ctrl (MEK4): 74 % Ctrl
